The values that follow come from patent publication US10564168B2, “Method for treating male infertility based on NOX5 protein levels in sperm” (priority 2013, dated 2020).

The test system of one experiment is K562/NOX5 cells. In words: Superoxide production by K562/NOX5 cells. In kind it is cell-based, human. To be noted: 1 mM ZnCl2, K562/NOX5 cells. How it is done: (§1) Superoxide generation was measured using a luminol-based chemiluminescence assay (Diogenes reagent, National Diagnostics, Atlanta, Ga.). […] Spermatozoa were suspended at 10^9/ml in PBS-G. A 100 μl aliquot of the Diogenes reagent was mixed with 2×10^7 spermatozoa and incubated at 37° C. for 2-4 minutes. Superoxide generation was measured at baseline and after stimulation with ionomycin (1 μM), phorbol myristate acetate (PMA, 1 μg/ml), or H2O2 (100 μM and other concentrations as indicated). Chemiluminescence was measured every 30-60 sec for up to 10-15 min using a Clarity™ BioTek luminometer and an integration time of 5 sec.
Human leukemia cells stably transfected with an empty vector (K562 cells) or a vector encoding for NOX5 (K562/NOX5) were grown in RPMI medium supplemented with 10% (v/v) fetal bovine serum, plus 100 U/ml penicillin and 100 μg/ml streptomycin and the appropriate selection antibiotic. Cells in the logarithmic phase of growth were transfected with a mix of HV1 siRNA (Sigma) or with scrambled siRNA (Sigma) using the Neon system (Invitrogen, Carlsbad, Calif.) according to the manufacturer's recommendations. […]

Experiment [1] relates to human spermatozoa. In words: Superoxide assay, luminol-based Diogenes chemiluminescence, whole spermatozoa. The class given is cell-based.
Source text: (§2) Human semen samples were obtained from patient donors as a part of their clinical evaluation for fertility and reproductive health status. Portions of the samples not required for clinical analyses were de-identified and made available for the research protocols described. Under these conditions, the Institutional Review Board determined that the study is exempt from requirements for protocol approval and informed consent. Semen was collected by masturbation into sterile plastic containers and allowed to liquefy for at least 30 min before being processed. The samples were centrifuged (500 g, 15 min) to separate the seminal plasma from spermatozoa, and the pellet washed twice in phosphate-buffered normal saline pH 7 with 10 mM glucose (PBS-G). The spermatozoa were then counted in a hemocytometer chamber, resuspended in PBS-G at 10^9/ml, and used for superoxide assays. Sperm samples containing leukocytes detected by microscopic examination were excluded from the study. For selected experiments, motile spermatozoa were collected using the swim-up procedure (Vijayakumar et al. (1986) Arch. Androl. 17, 223-230; Parrish and Foote (1987) J. Androl. 8, 259-266). Briefly, the spermatozoa were sedimented by centrifugation (500 g, 15 min) and the tube was then incubated upright for 60 min at 37° C. Motile spermatozoa that progressed from the pellet into the supernatant (swim-up fraction) were collected by aspiration and counted.
as §1
Spermatozoa were pre-incubated for 5 min prior to the superoxide assay with 400 U/ml superoxide dismutase (SOD), 10 μM diphenylene iodonium (DPI), or 100 μM 1,2-Bis (2-aminophenoxy) ethane-N,N,N′,N′-tetraacetic acid (BAPTA). […] In some experiments, cells were pre-exposed to the NOX inhibitor 2-(2-chlorophenyl)-4-methyl-5-(pyridin-2-ylmethyl)-1H-pyrazolo[4,3-c]pyridine-3,6(2H,5H)-dione (GKT136901, 0.5 μM and other concentrations as indicated) for 10 min before exposure to either H2O2 or PMA.

Experiment [2] has as its system human spermatozoa. In words: Live cell confocal imaging with fluo4-AM and DHE. In kind it is cell-based. To be noted: H2O2, 10 min. How it is done:
Spermatozoa suspended in PBS-G were plated on poly-L-lysine-coated glass coverslips (2×10^5 cells/ml) in PBS-G and loaded with 6 μM fluo4-AM and 300 nM dihydroethidine (DHE) (Molecular Probes, Carlsbad, Calif.) 10 min before imaging. Ca2+ influx and superoxide production were recorded using a confocal microscope (LSM 510; Carl Zeiss MicroImaging, Inc., Thornwood, N.Y.) with a 63×/1.4 NA plan-apochromat objective. Fluo-4 and DHE fluorescence emissions were excited with dual laser at 488/543 nm attenuated to avoid photobleaching and saturation. Detection was through a 545 nm long-pass dichroic mirror and a band-pass filter at 500-530 for fluo-4 and LP560 for DHE.

Experiment [3] relates to human spermatozoa. In words: Swim-up procedure, sperm motility. To be noted: 100 μM H2O2, 10 min. In kind it is cell-based.
Source text: as §2

The test system of a further experiment is c-Abl. In words: Phospho-c-Abl immunoblot and immunostaining of spermatozoa. In kind it is cell-based, human. To be noted: 100 μM H2O2, 10 min. Here is the method:
Spermatozoa resuspended in lysis buffer A (20 mM HEPES, pH 7.9; 350 mM NaCl; 0.5 mM EDTA; 0.5 mM EGTA; 1 mM MgCl2; 10% glycerol (v/v); 1% Nonidet P-40 (v/v); 10 mM NaF; 0.1 mM Na3VO4 [orthovanadate], 8 mM β-glycerophosphate; phosphatase inhibitor cocktail I and II [Sigma]; and protease inhibitor cocktail [Roche, Mannheim, Germany]) were sonicated 3 times for 5 sec each (20 watts). Lysates were cleared by centrifugation (10,000 g, 15 min). Aliquots containing 60-200 μg of protein were separated on 4-20% SDS polyacrylamide gradient gels and transferred to polyvinylidene difluoride (PVDF) membranes. […]
For immunohistological analyses, a drop of spermatozoa suspended in PBS-G was placed on a poly-L-lysine-coated glass slide, fixed in 4% (w/v) paraformaldehyde and permeabilized with 0.1% Triton X-100 (v/v) for 15 min at 4° C. […] Protein expression was visualized on a fluorescence microscope (Zeiss, Thornwood, N.Y.). […]
On the technique in general: Immunoblotting shows a protein as a band on a membrane.

In the case of `[Cl-].[Cl-].[Zn+2]` [ZnCl2], the “decrease of superoxide production stimulated by ionomycin, PMA, or H2O2” value in the experiment with K562/NOX5 cells is 50-70%. Besides, the “sensitivity of superoxide production induced by H2O2, PMA, or ionomycin” value with human spermatozoa [1] (1 mM ZnCl2, 5 min pre-incubation, human spermatozoa) was “Zn2+-sensitive”.
As for `OO` [H2O2], the “cytosolic Ca2+ levels and superoxide fluorescence” value in the experiment on human spermatozoa [2] is “increases in cytosolic Ca2+ levels”. In the experiment with human spermatozoa [3], the “effect on number of sperm in the swim-up fraction” value is recorded as “increase in the number of sperm in the swim-up fraction”. For the same molecule, in the experiment on c-Abl, the “phosphorylation of c-Abl” value is given as “induced the phosphorylation of c-Abl on tyrosine 245”. The “dose dependence of induction of superoxide generation” value in the experiment on human spermatozoa [1] (1 to 500 μM H2O2) was “dose-dependent”. Moreover, the “H2O2-stimulated superoxide production by hypermotile spermatozoa of the upper fraction after spontaneous swim-up” value with human spermatozoa [1] (compared with pre-swim-up cells) is recorded as “did not produce superoxide”. Also, the “onset of superoxide burst after peroxide addition” value with human spermatozoa [1] (human spermatozoa) was in the range of 1 to 2 min. Besides, in the experiment on human spermatozoa [1] (human spermatozoa, varying among donors), the “time to maximal superoxide activity levels” value fell in the range of 5 to 10 min. For the same molecule, in the experiment with human spermatozoa [1] (ionomycin 1 μM, PMA 1 μg/ml or H2O2 100 μM, 10 min), the “induction of superoxide production by spermatozoa” value was “induced a marked burst in superoxide production”.
